The assay deals with 3T3-L1 adipocytes. The assay can be described thus: Glucose uptake in transformed 3T3-L1 adipocytes (colourometric glucose oxidase method). The assay is classed as cell-based. Here is the method:
3T3-L1 cells were transformed in culture using modified DMEM differentiation media supplemented with insulin, dexametasone and isobutylmethylxanthine and cultured for 3 days. The transformed 3T3-L1 adipocytes were then cultured for a further 5 days in modified DMEM supplemented with 10% FCS before being exposed to insulin, metformin and compounds of the present invention (see Table 1). Glucose uptake over a three (3) hour period was determined after the 5 days of treatment using a colourometric glucose oxidase method (Biovision Inc, USA).
The glucose concentration column represents the glucose concentration remaining in the media following three (3) hour exposure to the cells. The glucose uptake column represents glucose uptake from the media after a 3 hour exposure. SD represents the standard deviation. The percentage increases calculated from the relevant solvent vehicle and the P=values are reflected in the last two columns respectively.

Consider 1 compound from patent US10174065B2, “Antidiabetic enolic glucoside of phenylpyruvic acid” (ZADEC APS, priority 2010, dated 2019).

SMILES strings stand for the structures.

Take `O=C(O)/C(=C/c1ccccc1)O[C@@H]1O[C@H](CO)[C@@H](O)[C@H](O)[C@H]1O` [RX-1, 3-Phenyl-2-(3,4,5-trihydroxy-6-hydroxymethyl-tetrahydro-pyran-2-yloxy)-acrylic acid]: the “glucose uptake over a 3 hour culture period” value (3T3-L1 adipose cells) is listed as “significantly increased”. This compound registered a Glucose conc. (glucose remaining in the media after 3 hour exposure to the cells, media containing 8 mM glucose) of 3.19 nM/ul. Under “glucose uptake from the media after 3 hour exposure, media containing 8 mM glucose”, the “Glucose Uptake” value came to 2.86 nM/ul. In addition, the “% uptake” value (relative to DMSO vehicle = 100.00, 3 hour glucose uptake) is 122.64%.
